Results from patent US20240409536A1, “COMPOUNDS AND METHODS FOR MODULATING SPLICING” (REMIX THERAPEUTICS INC., priority 2021, published 2024).

Assays:
HTT mRNA [1] = assay: Splicing RT-qPCR assay, HTT canonical (CJ) and alternative (AJ) junction mRNA; format: cell-based; conditions: Homo sapiens, A673 or K562 cells, 24 hours; for IC50: decrease in canonical junction mRNA; for AC50: increase in alternative junction mRNA
Method: (§1) Compounds described herein were used to modulate RNA transcript abundance in cells. The expression of a target mRNA was measured by detecting the formation of an exon-exon junction in the canonical transcript (CJ). A compound mediated exon-inclusion event was detected by observing an increase in formation of a new junction with an alternative exon (AJ). Real-time qPCR assays were used to detect these splicing switches and interrogate the potency of various compounds towards different target genes. A high-throughput real time quantitative PCR (RT-qPCR) assay was developed to measure these two isoforms of the mRNA (CJ and AJ) for exemplary genes, such as HTT, SMN2, and MYB, together with a control housekeeping gene, GAPDH or GUSB or PPIA, used for normalization. Briefly, the A673 or K562 cell line was treated with various compounds described herein (e.g., compounds of Formula (I), (I), or (III)). After treatment, the levels of the HTT, MYB, or SMN2 mRNA targets were determined from each sample of cell lysate by cDNA synthesis followed by qPCR.
(§2) • Cells-to-CT 1-step kit: ThermoFisher A25602, Cells-to-CT lysis reagent: ThermoFisher 4391851C, TaqMan™ Fast Virus 1-Step Master Mix: ThermoFisher 4444436 • GAPDH: VIC-PL, ThermoFisher 4326317E (Assay: Hs99999905_ml)—used for K562/suspension cell lines • GUSB: VIC-PL, ThermoFisher 4326320E (Assay: Hs99999908_ml)—used for K562/suspension cell lines • PPIA: VIC-PL, ThermoFisher 4326316E (Assay: Hs99999904_ml)—used for A673/adherent cell lines
(§3) The A673 cell line was cultured in DMEM with 10% FBS. Cells were diluted with full growth media and plated in a 96-well plate (15,000 cells in 100 ul media per well). The plate was incubated at 37° C. with 5% CO2 for 24 hours to allow cells to adhere. An 11-point 3-fold serial dilution of the compounds was made in DMSO then diluted in media in an intermediate plate. Compounds were transferred from the intermediate plate to the cell plate with the top dose at a final concentration of 10 uM in the well. Final DMSO concentration was kept at or below 0.25%. The cell plate was returned to the incubator at 37° C. with 5% CO2 for an additional 24 hours.
(§4) The K562 cell line was cultured in IMDM with 10% FBS. For K562, cells were diluted with full growth media and plated in either a 96-well plate (50,000 cells in 50 uL media per well) or a 384-well plate (8,000-40,000 cells in 45 uL media per well). An 11-point 3-fold serial dilution of the compounds were made in DMSO then diluted in media in an intermediate plate. Compound was transferred from the intermediate plate to the cell plate with the top dose at a final concentration of 10 uM in the well. Final DMSO concentration was kept at or below 0.25%. Final volume was 100 uL for 96-well plate and 50 uL for 384-well plate. The cell plate was then placed in an incubator at 37° C. with 5% CO2 for 24 hours.
(§5) The cells were then gently washed with 50 uL-100 uL cold PBS before proceeding to addition of lysis buffer. 30 uL-50 uL of room temperature lysis buffer with DNAse I (and optionally RNAsin) was added to each well. Cells were shaken/mixed thoroughly at room temperature for 5-10 minutes for lysis to take place and then 3 uL-5 uL of room temperature stop solution was added and wells were shaken/mixed again. After 2-5 minutes, the cell lysate plate was transferred to ice for RT-qPCR reaction setup. The lysates could also be frozen at −80° C. for later use.
(§6) In some cases, a direct lysis buffer was used. An appropriate volume of 3×lysis buffer (10 mM Tris, 150 mM NaCl, 1.5%-2.5% Igepal and 0.1-1 U/uL RNAsin, pH 7.4) was directly added to either K562 or A673 cells in media and mixed by pipetting 3 times. The plates were then incubated at room temperature with shaking/rocking for 20-50 minutes to allow for lysis to take place. After this time, the cell lysate plate was transferred to ice to set up for the RT-qPCR reactions. The lysates could also be frozen at −80° C. for later use. […]

MYB mRNA [2] = assay: Splicing RT-qPCR assay, MYB canonical (CJ) and alternative (AJ) junction mRNA; format: cell-based; conditions: Homo sapiens, A673 or K562 cells, 24 hours; for IC50: decrease in canonical junction mRNA; for AC50: increase in alternative junction mRNA
Method: as §1, §2, §3, §4, §5, §6

HTT mRNA [3] = assay: Gene panel canonical junction qPCR assay, HTT CJ mRNA decrease; format: cell-based, human; conditions: Homo sapiens, canonical junction qPCR, read-out: HTT IC50 (decrease in CJ mRNA levels)
Procedure, shortened: (§7)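 A673 or K562 cells were treated with compound, and lysates underwent cDNA synthesis and qPCR with a CY5 5′-nuclease probe or primer spanning the canonical exon junction. ΔCt versus GAPDH, GUSB or PPIA was normalized to DMSO (2^(−ΔΔCt)), converted to percentage response and fitted four-parameter logistic for IC50.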

MYB mRNA [4] = assay: Gene panel canonical junction qPCR assay, MYB CJ mRNA decrease; format: cell-based, human; conditions: Homo sapiens, canonical junction qPCR, read-out: MYB IC50 (decrease in CJ mRNA levels)
Procedure, shortened: as §7

SMN2 mRNA = assay: Gene panel canonical junction qPCR assay, SMN2 CJ mRNA decrease; format: cell-based, human; conditions: Homo sapiens, canonical junction qPCR, read-out: SMN2 IC50 (decrease in CJ mRNA levels)
Procedure, shortened: as §7

Target C mRNA = assay: Gene panel canonical junction qPCR assay, Target C CJ mRNA decrease; format: cell-based; conditions: Homo sapiens, canonical junction qPCR, read-out: Target C IC50 (decrease in CJ mRNA levels)
Procedure, shortened: as §7

K562 cells = assay: Cell Titer Glo 2.0 cell viability assay in K562 cells; conditions: 72 hours
Method: Compounds described herein were screened for toxicity in K562 (human chronic myelogenous leukemia) and SH-SY5Y (human neuroblastoma) cells using a Cell Titer Glo 2.0 assay.
Cells were plated at 500 cells/well (K562 cells) in 45 μL of IMDM supplemented with 10% FBS in a 384-well opaque plate. Wells containing only medium were used as a blank control. Test compounds (e.g., compounds of Formula (I), (II), or (III)) were first serially diluted in DMSO then diluted 1:100 with IMDM+10% FBS. The final concentration of DMSO was 0.1% in each well. The cells were incubated for 72 hours at 37° C. and 5% CO2 before assaying with Cell Titer Glo 2.0 reagent.

Structure (SMILES): COc1ccc2c(N3C[C@H](C)N[C@@H](C)C3)ccc(C(=O)Nc3cc(F)c4nc(C)cn4c3)c2n1 [Compound 385]
- IC50 (HTT mRNA [1]): 1000 to 10000 nM
- AC50 (HTT mRNA [1]): 1000 to 10000 nM
- IC50 (MYB mRNA [2]): < 100 nM
- AC50 (MYB mRNA [2]): < 100 nM
- IC50 (HTT mRNA [3]): 1000 to 10000 nM
- IC50 (MYB mRNA [4]): < 100 nM
- IC50 (SMN2 mRNA): < 100 nM
- IC50 (Target C mRNA): > 10000 nM
- Viability (K562 cells): B (B represents 100-1000 nM)

Structure (SMILES): Cc1cn2cc(NC(=O)c3ccc([C@@H]4C[C@@H](C)N[C@@H](C)C4)c4nccnc34)cc(F)c2n1 [Compound 380]
- IC50 (HTT mRNA [1]): 100 to 1000 nM
- AC50 (HTT mRNA [1]): 100 to 1000 nM
- IC50 (MYB mRNA [2]): < 100 nM
- AC50 (MYB mRNA [2]): < 100 nM
- IC50 (HTT mRNA [3]): 100 to 1000 nM
- IC50 (MYB mRNA [4]): < 100 nM
- IC50 (SMN2 mRNA): < 100 nM
- IC50 (Target C mRNA): 100 to 1000 nM
- Viability (K562 cells): B (B represents 100-1000 nM)

Structure (SMILES): COc1nc(NC(=O)c2ccc(N3C[C@@H](C)N[C@@H](C)C3)c3cccnc23)cn2cc(C)nc12 [Compound 383]
- IC50 (HTT mRNA [1]): 1000 to 10000 nM
- AC50 (HTT mRNA [1]): 1000 to 10000 nM
- IC50 (MYB mRNA [2]): 100 to 1000 nM
- AC50 (MYB mRNA [2]): 100 to 1000 nM
- IC50 (HTT mRNA [3]): 1000 to 10000 nM
- IC50 (MYB mRNA [4]): 100 to 1000 nM
- IC50 (SMN2 mRNA): < 100 nM
- IC50 (Target C mRNA): 1000 to 10000 nM
- Viability (K562 cells): B (B represents 100-1000 nM)

Structure (SMILES): COc1nc(NC(=O)c2ccc(N3C[C@H](C)N[C@@H](C)C3)c3nccnc23)cn2cc(C)nc12 [Compound 381]
- IC50 (HTT mRNA [1]): > 10000 nM
- AC50 (HTT mRNA [1]): > 10000 nM
- IC50 (MYB mRNA [2]): 100 to 1000 nM
- AC50 (MYB mRNA [2]): 100 to 1000 nM
- IC50 (HTT mRNA [3]): > 10000 nM
- IC50 (MYB mRNA [4]): 100 to 1000 nM
- IC50 (SMN2 mRNA): < 100 nM
- IC50 (Target C mRNA): > 10000 nM
- Viability (K562 cells): B (B represents 100-1000 nM)

Structure (SMILES): COc1ncc2c(N3C[C@H](C)N[C@@H](C)C3)ccc(C(=O)Nc3cn4cc(C)nc4c(OC)n3)c2n1 [Compound 387]
- IC50 (HTT mRNA [1]): 1000 to 10000 nM
- AC50 (HTT mRNA [1]): 1000 to 10000 nM
- IC50 (MYB mRNA [2]): < 100 nM
- AC50 (MYB mRNA [2]): < 100 nM
- IC50 (HTT mRNA [3]): 1000 to 10000 nM
- IC50 (MYB mRNA [4]): < 100 nM
- IC50 (SMN2 mRNA): < 100 nM
- IC50 (Target C mRNA): 1000 to 10000 nM
- Viability (K562 cells): B (B represents 100-1000 nM)

Structure (SMILES): Cc1cn2cc(NC(=O)c3ccc([C@H]4C[C@@H](C)N[C@@H](C)C4)c4nccnc34)cc(F)c2n1 [Compound 379]
- IC50 (HTT mRNA [1]): 1000 to 10000 nM
- AC50 (HTT mRNA [1]): 1000 to 10000 nM
- IC50 (MYB mRNA [2]): 100 to 1000 nM
- AC50 (MYB mRNA [2]): 100 to 1000 nM
- IC50 (HTT mRNA [3]): 1000 to 10000 nM
- IC50 (MYB mRNA [4]): 100 to 1000 nM
- IC50 (SMN2 mRNA): < 100 nM
- IC50 (Target C mRNA): > 10000 nM
- Viability (K562 cells): B (B represents 100-1000 nM)

Structure (SMILES): Cc1cn2cc(NC(=O)c3ccc(N4C[C@H](C)N[C@@H](C)C4)c4cccnc34)cc(F)c2n1 [Compound 382]
- IC50 (HTT mRNA [1]): 1000 to 10000 nM
- AC50 (HTT mRNA [1]): 1000 to 10000 nM
- IC50 (MYB mRNA [2]): 100 to 1000 nM
- AC50 (MYB mRNA [2]): < 100 nM
- IC50 (HTT mRNA [3]): 1000 to 10000 nM
- IC50 (MYB mRNA [4]): 100 to 1000 nM
- IC50 (SMN2 mRNA): < 100 nM
- IC50 (Target C mRNA): 1000 to 10000 nM
- Viability (K562 cells): B (B represents 100-1000 nM)

Structure (SMILES): COc1nc(NC(=O)c2ccc(N3C[C@H](C)N[C@@H](C)C3)c3cccnc23)cn2cc(C)nc12 [Compound 384]
- IC50 (HTT mRNA [1]): 1000 to 10000 nM
- AC50 (HTT mRNA [1]): 1000 to 10000 nM
- IC50 (MYB mRNA [2]): < 100 nM
- AC50 (MYB mRNA [2]): < 100 nM
- IC50 (HTT mRNA [3]): 1000 to 10000 nM
- IC50 (MYB mRNA [4]): < 100 nM
- IC50 (SMN2 mRNA): < 100 nM
- IC50 (Target C mRNA): > 10000 nM
- Viability (K562 cells): B (B represents 100-1000 nM)
